Laboratory results reported in patent US9926304B2, “1-(arylmethyl)quinazoline-2,4(1H,3H)-diones as PARP inhibitors and the use thereof” (Impact Therapeutics, Inc., priority 2011, dated 2018).

Experiments:
[1] = test system: SW620 human colorectal cancer cells; test: MTT based cell viability assay: potentiation of the growth inhibiting activity of MMS; conditions: Homo sapiens, SW-620, 120 h, read-out: IC50 (nM), potentiation of the growth inhibiting activity of MMS, SW620 cells, 1.7 μg/ml MMS, 5 days (120 hours), MTT
[2] = test system: Human breast cancer cell line T47D; test: Cell based caspase-3 activity assay: potentiation of MMS induced apoptosis; conditions: Homo sapiens, T47D, 24 h, T47D cells, 11.1 μg/ml MMS, 24 hours, intracellular caspase-3 activity; read-out: EC50 (nM), potentiation of the apoptosis inducing activity of MMS
Summary of the method: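 T47D cells were exposed for 24 h to compound plus a minimally apoptotic MMS dose (medium containing 11.1 μg/ml MMS). Lysates were incubated 3 h at 37 °C with (Ac-DEVD)2-R110 caspase-3 substrate (20 μM in added buffer) and read at ex 496/em 520 nm. EC50 came from a sigmoidal fit of RFU versus log concentration.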

SMILES | IC50 [1] | EC50 [2]
O=C(c1ccc(F)c(Cn2c(=O)[nH]c(=O)c3c(Cl)cccc32)c1)N1CCN(c2ncccn2)CC1 [Example 110, 5-Chloro-1-(6-fluoro-3-(4-(pyrimidin-2-yl)piperazine-1-carbonyl)benzyl)quinazoline-2,4(1H,3H)-dione] | 72 nM | 32 nM
O=C(c1cccc(Cn2c(=O)[nH]c(=O)c3cc(Cl)ccc32)c1)N1CCN(c2ccccn2)CC1 [Example 114, 6-Chloro-1-(3-(4-(pyridin-2-yl)piperazine-1-carbonyl)benzyl)quinazoline-2,4(1H,3H)-dione] | 51 nM | 19 nM
O=C(c1cccc(Cn2c(=O)[nH]c(=O)c3cc(Cl)ccc32)c1)N1CCN(C(=O)c2cccs2)CC1 [Example 115, 6-Chloro-1-(3-(4-(thiophene-2-carbonyl)piperazine-1-carbonyl)benzyl)quinazoline-2,4(1H,3H)-dione] | 19 nM | 23 nM
O=C(c1cccc(Cn2c(=O)[nH]c(=O)c3cc(Cl)ccc32)c1)N1CCN(C(=O)C2CCC2)CC1 [Example 116, 6-Chloro-1-(3-(4-(cyclobutylcarbonyl)piperazine-1-carbonyl)benzyl)quinazoline-2,4(1H,3H)-dione] | 48 nM | 13 nM
O=C(c1cc(Cn2c(=O)[nH]c(=O)c3cc(Cl)ccc32)ccc1F)N1CCN(c2ccccn2)CC1 [Example 120, 6-Chloro-1-(4-fluoro-3-(4-(pyridin-2-yl)piperazine-1-carbonyl)benzyl)quinazoline-2,4(1H,3H)-dione] | 42 nM | 8.8 nM
O=C(c1cccs1)N1CCN(C(=O)c2cc(Cn3c(=O)[nH]c(=O)c4cc(Cl)ccc43)ccc2F)CC1 [Example 121, 6-Chloro-1-(4-fluoro-3-(4-(thiophene-2-carbonyl)piperazine-1-carbonyl)benzyl)quinazoline-2,4(1H,3H)-dione] | 4.5 nM | 4.9 nM
O=C(c1ccc(F)c(Cn2c(=O)[nH]c(=O)c3cc(Cl)ccc32)c1)N1CCN(C(=O)C2CCCCC2)CC1 [Example 125, 6-Chloro-1-(3-(4-(cyclohexylcarbonyl)piperazine-1-carbonyl)-6-fluorobenzyl)quinazoline-2,4(1H,3H)-dione] | 6.7 nM | 22 nM
O=C(c1ccc(F)c(Cn2c(=O)[nH]c(=O)c3cc(Cl)ccc32)c1)N1CCN(C(=O)c2cccs2)CC1 [Example 126, 6-Chloro-1-(6-fluoro-3-(4-(thiophene-2-carbonyl)piperazine-1-carbonyl)benzyl)quinazoline-2,4(1H,3H)-dione] | 18 nM | 6.5 nM
O=C(c1cccc(Cn2c(=O)[nH]c(=O)c3c(F)cccc32)c1)N1CCN(C(=O)C2CCCCC2)CC1 [Example 129, 1-(3-(4-(Cyclohexylcarbonyl)piperazine-1-carbonyl)benzyl)-5-fluoroquinazoline-2,4(1H,3H)-dione] | 18 nM | 49 nM
O=C(c1cccc(Cn2c(=O)[nH]c(=O)c3c(F)cccc32)c1)N1CCN(c2ccccn2)CC1 [Example 130, 5-Fluoro-1-(3-(4-(pyridin-2-yl)piperazine-1-carbonyl)benzyl)quinazoline-2,4(1H,3H)-dione] | 15 nM | 87 nM
O=C(c1cccc(Cn2c(=O)[nH]c(=O)c3c(F)cccc32)c1)N1CCN(C(=O)c2cccs2)CC1 [Example 131, 5-Fluoro-1-(3-(4-(thiophene-2-carbonyl)piperazine-1-carbonyl)benzyl)quinazoline-2,4(1H,3H)-dione] | 17 nM | 20 nM
O=C(c1ccccc1)N1CCN(C(=O)c2cc(Cn3c(=O)[nH]c(=O)c4c(F)cccc43)ccc2F)CC1 [Example 137, 1-(3-(4-Benzoylpiperazine-1-carbonyl)-4-fluorobenzyl)-5-fluoroquinazoline-2,4(1H,3H)-dione] | 7 nM | 2.1 nM
O=C(c1cccc(Cn2c(=O)[nH]c(=O)c3cccc(F)c32)c1)N1CCN(C(=O)C2CCCCC2)CC1 [Example 138, 1-(3-(4-(Cyclohexylcarbonyl)piperazine-1-carbonyl)benzyl)-8-fluoroquinazoline-2,4(1H,3H)-dione] | 351 nM | 281 nM
O=C(c1cccc(Cn2c(=O)[nH]c(=O)c3cc(F)ccc32)c1)N1CCN(C(=O)c2cccs2)CC1 [Example 141, 6-Fluoro-1-(3-(4-(thiophene-2-carbonyl)piperazine-1-carbonyl)benzyl)quinazoline-2,4(1H,3H)-dione] | 12 nM | 13 nM
O=C(c1cccs1)N1CCN(C(=O)c2cc(Cn3c(=O)[nH]c(=O)c4cc(F)ccc43)ccc2F)CC1 [Example 146, 6-Fluoro-1-(4-fluoro-3-(4-(thiophene-2-carbonyl)piperazine-1-carbonyl)benzyl)quinazoline-2,4(1H,3H)-dione] | 3.4 nM | 4.1 nM
O=C(c1ccc(F)c(Cn2c(=O)[nH]c(=O)c3cc(F)ccc32)c1)N1CCN(C(=O)c2cccs2)CC1 [Example 151, 6-Fluoro-1-(6-fluoro-3-(4-(thiophene-2-carbonyl)piperazine-1-carbonyl)benzyl)quinazoline-2,4(1H,3H)-dione] | 18 nM | 5.2 nM
O=C(c1ccc(F)c(Cn2c(=O)[nH]c(=O)c3c(F)cccc32)c1)N1CCN(C(=O)c2cccs2)CC1 [Example 156, 5-Fluoro-1-(6-fluoro-3-(4-(thiophene-2-carbonyl)piperazine-1-carbonyl)benzyl)quinazoline-2,4(1H,3H)-dione] | 28 nM | 14 nM
O=C(c1ccc(F)c(Cn2c(=O)[nH]c(=O)c3c(F)cccc32)c1)N1CCN(C(=O)C2CCCC2)CC1 [Example 158, 1-(3-(4-(Cyclopentylcarbonyl)piperazine-1-carbonyl)-6-fluorobenzyl)-5-fluoroquinazoline-2,4(1H,3H)-dione] | 7.8 nM | 8.6 nM
Cc1cccc2c1c(=O)[nH]c(=O)n2Cc1cccc(C(=O)N2CCN(c3ncccn3)CC2)c1 [Example 159, 5-Methyl-1-(3-(4-(pyrimidin-2-yl)piperazine-1-carbonyl)benzyl)quinazoline-2,4(1H,3H)-dione] | 648 nM | 220 nM
Cc1cccc2c1c(=O)[nH]c(=O)n2Cc1cccc(C(=O)N2CCN(C(=O)C3CCCC3)CC2)c1 [Example 160, 1-(3-(4-(Cyclopentylcarbonyl)piperazine-1-carbonyl)benzyl)-5-methylquinazoline-2,4(1H,3H)-dione] | 394 nM | 261 nM
O=C(c1cccc(Cn2c(=O)[nH]c(=O)c3ccc(Cl)cc32)c1)N1CCN(C(=O)C2CCCC2)CC1 [Example 162, 7-Chloro-1-(3-(4-(cyclopentylcarbonyl)piperazine-1-carbonyl)benzyl)quinazoline-2,4(1H,3H)-dione] | 1190 nM | 495 nM
O=C(c1cc(Cn2c(=O)[nH]c(=O)c3c(F)cccc32)ccc1F)N1CCN(C(=O)C2CC2)CC1 [Example 163, 1-(3-(4-(Cyclopropylcarbonyl)piperazine-1-carbonyl)-4-fluorobenzyl)-5-fluoroquinazoline-2,4(1H,3H)-dione] | 28 nM | 42 nM
O=C(c1ccccc1)N1CCN(C(=O)c2cc(Cn3c(=O)[nH]c(=O)c4cc(Cl)ccc43)ccc2F)CC1 [Example 164, 6-Chloro-1-(3-(4-benzoylpiperazine-1-carbonyl)-4-fluorobenzyl)quinazoline-2,4(1H,3H)-dione] | 6.2 nM | 2.1 nM
O=C(c1cccc(Cn2c(=O)[nH]c(=O)c3c(F)cccc32)c1)N1CCN(C(=O)C2CCC2)CC1 [Example 165, 1-(3-(4-(Cyclobutylcarbonyl)piperazine-1-carbonyl)benzyl)-5-fluoroquinazoline-2,4(1H,3H)-dione] | 49 nM | 18 nM
O=C(c1cc(Cn2c(=O)[nH]c(=O)c3c(F)cccc32)ccc1F)N1CCN(C(=O)C2CCC2)CC1 [Example 166, 1-(3-(4-(Cyclobutylcarbonyl)piperazine-1-carbonyl)-4-fluorobenzyl)-5-fluoroquinazoline-2,4(1H,3H)-dione] | 4 nM | 1.6 nM
O=C(c1ccc(F)c(Cn2c(=O)[nH]c(=O)c3cc(Cl)ccc32)c1)N1CCN(C(=O)C2CCC2)CC1 [Example 167, 6-Chloro-1-(3-(4-(cyclobutylcarbonyl)piperazine-1-carbonyl)-6-fluorobenzyl)quinazoline-2,4(1H,3H)-dione] | 5.7 nM | 5 nM
O=C(c1cc(Cn2c(=O)[nH]c(=O)c3cc(Cl)ccc32)ccc1F)N1CCN(C(=O)C2CCC2)CC1 [Example 169, 6-Chloro-1-(3-(4-(cyclobutylcarbonyl)piperazine-1-carbonyl)-4-fluorobenzyl)quinazoline-2,4(1H,3H)-dione] | 3.4 nM | 1 nM
O=C(c1ccc(F)c(Cn2c(=O)[nH]c(=O)c3c(Cl)cccc32)c1)N1CCN(C(=O)C2CCC2)CC1 [Example 170, 5-Chloro-1-(3-(4-(cyclobutylcarbonyl)piperazine-1-carbonyl)-6-fluorobenzyl)quinazoline-2,4(1H,3H)-dione] | 120 nM | 43 nM
O=C(c1ccc(F)c(Cn2c(=O)[nH]c(=O)c3c(Cl)cccc32)c1)N1CCN(C(=O)c2cccs2)CC1 [Example 171, 5-Chloro-1-(6-fluoro-3-(4-(thiophene-2-carbonyl)piperazine-1-carbonyl)benzyl)quinazoline-2,4(1H,3H)-dione] | 70 nM | 23 nM
O=C(c1ccc(F)c(Cn2c(=O)[nH]c(=O)c3c(Cl)cccc32)c1)N1CCN(c2ccccn2)CC1 [Example 173, 5-Chloro-1-(6-fluoro-3-(4-(pyridin-2-yl)piperazine-1-carbonyl)benzyl)quinazoline-2,4(1H,3H)-dione] | 228 nM | 122 nM
